Assay results: patent US11384071B2, “Inhibitors of mechanotransduction to treat pain and modulate touch perception” (Max-Delbrück-Centrum für Molekulare Medizin in der …, priority 2016, dated 2022)

Experiments:
[1] = test system: mechanically gated currents in mechanoreceptors; test: Pillar array analysis of mechanically gated currents in DRG mechanoreceptors; format: cell-based, mouse; conditions: for sensitivity of mechanically gated currents in mechanoreceptors: acutely cultured mouse sensory neurons; for pillar deflections at which mechanically-gated currents are significantly inhibited: mechanoreceptors, FIG. 2e
Method: (§1) HEK-293 cells (passage numbers 4-20) were cultured in DMEM plus 10% fetal calf serum (FCS). Neuro2A (N2A) cells were cultured in DMEM/Opti-MEM media plus 10% FCS.—Sensory DRG neurons were isolated from 4 week old Mus musculus (C57Bl/6). Approximately 20 ganglia were collected from each mouse and individual cells were isolated by treating ganglia with […] collagenase IV for 30 min, followed by 1 ml of 0.05% trypsin, in PBS, for 5-20 min at 37° C. Enzyme-treated ganglia, in DMEM/F-12 media containing 10% Horse Serum (HS), were disrupted by gently passaging through a 20 G needle; cells were then collected by centrifugation (1000 rpm, 3 min), washed and finally re-suspended in DMEM/F-12, 10% HS media (at no point were neurotrophins added to the culture). Sensory neurons were then seeded on EHS-laminin coated substrate and cultured overnight. Experiments involving isolated sensory neurons were conducted within 24-36 hours of isolation of the cells.
(§2) Whole-cell, patch-clamp recordings were conducted as previously described 5-7, using patch pipettes with a tip resistance of 3-6 MΩ, filled with a solution of: 110 mM KCl, 10 mM NaCl, 1 mM MgCl2, 1 mM EGTA and 10 mM HEPES, adjusted to pH 7.3 with KOH. (For experiments on DRG neurons 10 mM QX-314 was added to the pipette to block voltage-gated sodium channels 8 Extracellular solutions contained 140 mM NaCl, 4 mM KCl, 2 mM CaCl2, 1 mM MgCl2, 4 mM glucose, 10 mM HEPES, adjusted to pH 7.4 with NaOH. A Zeiss 200 inverted microscope and an EPC-10 amplifier in combination with Patchmaster software was used, data was analyzed using Fitmaster software (HEKA Electronik GmbH, Germany). Pipette and membrane capacitance were compensated using the auto function of Patchmaster, series resistance was compensated by at least 60% to minimize voltage errors. Mechanical stimuli were applied using a polished glass probe driven by the MM3A micromanipulator (Kleindiek Nanotechnik, Germany). […]
(§3) Briefly, elastomeric pillar arrays of defined dimensions were cast in PDMS with an elasticity of 2 MPa. Cells cultured on these arrays were monitored using whole-cell patch-clamp whilst a glass probe was used to apply repeated deflections (of differing magnitudes) to an individual pilus directly beneath the cell. Images were obtained of the pilus before and after deflection and images were analyzed off-line to determine the exact deflection for each data point. […] Images were analyzed off-line using Igor software (WaveMetrics, USA). […] A power analysis was used to determine that moderate to strong effects between samples could be detected with a sample size >4. […] For quantitative analysis of mechanosensitivity we measured responses in the most sensitive sub-population of mechanoreceptors, previously defined as Typell mechanoreceptors (Poole et al., 2014).

[2] = test system: mechanically gated currents in nociceptors; test: Pillar array analysis of mechanically gated currents in DRG nociceptors; format: cell-based, mouse; conditions: for amplitude of mechanically gated currents in nociceptors: stimulus magnitudes between 100 and 500 nm
Method: as §1, §2, §3

[3] = test system: Piezo1 currents in N2A cells; test: Pillar array patch-clamp analysis of mechanotransduction in N2A cells; format: cell-based
Method: (§4) Whole-cell, patch-clamp recordings were conducted as previously described 5-7, using patch pipettes with a tip resistance of 3-6 MΩ, filled with a solution of: 110 mM KCl, 10 mM NaCl, 1 mM MgCl2, 1 mM EGTA and 10 mM HEPES, adjusted to pH 7.3 with KOH. (For experiments on DRG neurons 10 mM QX-314 was added to the pipette to block voltage-gated sodium channels 8 Extracellular solutions contained 140 mM NaCl, 4 mM KCl, 2 mM CaCl2, 1 mM MgCl2, 4 mM glucose, 10 mM HEPES, adjusted to pH 7.4 with NaOH. A Zeiss 200 inverted microscope and an EPC-10 amplifier in combination with Patchmaster software was used, data was analyzed using Fitmaster software (HEKA Electronik GmbH, Germany). Pipette and membrane capacitance were compensated using the auto function of Patchmaster, series resistance was compensated by at least 60% to minimize voltage errors. Mechanical stimuli were applied using a polished glass probe driven by the MM3A micromanipulator (Kleindiek Nanotechnik, Germany). Mechanical stimuli were applied by either; indenting the cell soma or by culturing cells on elastomeric pillar arrays and applying the stimulus to the cell-substrate interface by deflecting an individual pilus.
(§5) Briefly, elastomeric pillar arrays of defined dimensions were cast in PDMS with an elasticity of 2 MPa. Cells cultured on these arrays were monitored using whole-cell patch-clamp whilst a glass probe was used to apply repeated deflections (of differing magnitudes) to an individual pilus directly beneath the cell. Images were obtained of the pilus before and after deflection and images were analyzed off-line to determine the exact deflection for each data point. Images were obtained using a 40×LD objective and a CoolSNAP EZ CCD camera. Images were analyzed off-line using Igor software (WaveMetrics, USA). The collection of stimulus-response data using pillar arrays generates data sets with variation in both x and y. In order to effectively compare groups for each cell studied we binned response data by stimulus size in the following bins: 0-10, 10-50, 50-100, 100-250, 250-500, 500-1000. For each cell, current amplitudes within each bin were averaged and then bins averaged between cells—we then tested for significance by testing whether the current amplitude for a given stimulation range (i.e. bin) differed between samples. A power analysis was used to determine that moderate to strong effects between samples could be detected with a sample size >4. Data sets were in excess of this number. To distinguish mechanoreceptors from nociceptors in the mixed population of acutely prepared DRG neurons, the shape of the generated action potential (AP) was used. […] For quantitative analysis of mechanosensitivity we measured responses in the most sensitive sub-population of mechanoreceptors, previously defined as Typell mechanoreceptors (Poole et al., 2014). This population was identified as those cells with APs lacking a hump in the falling phase and a full width at half maximum (FWHM) of at least 0.7 ms, (average, ±s.e.m.: 0.9±0.04 ms)
Endogenously expressed STOML3 in N2A cells is required to maintain Piezo channel sensitivity to membrane deflection^2. By precisely deflecting defined areas of the membrane-substrate interface using a pillar array we could activate Piezo1 currents in N2A cells with displacements ranging from 100-1000 nm (FIG. 2a). Both OB-1 and OB-2 reduced the sensitivity of mechanosensitive currents to pillar deflection (FIG. 2b). […]

[4] = test system: dissociated mouse DRG neurons; test: Action potential properties and electrical excitability of dissociated DRG neurons; format: cell-based
Method: as §4
as §5, with “Data sets were in excess of this number.” left out, “2014).” for “2014). This population was identified as those cells with APs lacking a hump in the falling phase and a full width at half maximum (FWHM) of at least 0.7 ms, (average, ±s.e.m.: 0.9±0.04 ms)”
We evaluated the effects of OB-1 and OB-2 on mechanosensitive currents in acutely cultured mouse sensory neurons. Neurons were classified on the basis of their AP configuration as mechanoreceptors or nociceptors^2,21.

In the case of `CCOC(=O)c1c(-c2ccccc2)oc2ccc(Oc3c([N+](=O)[O-])ncn3C)cc12` [OB-1, Ethyl 5-((1-methyl-4-nitro-1H-imidazol-5-yl)oxy)-2-phenylbenzofuran-3-carboxylate], the “sensitivity of mechanically gated currents in mechanoreceptors” value [1] is reported as “substantially reduced”, the “pillar deflections at which mechanically-gated currents are significantly inhibited” value [1] is reported as “up to 250 nm” and the “amplitude of mechanically gated currents in nociceptors” value [2] is reported as “significant reduction”. The “sensitivity of mechanosensitive currents to pillar deflection” value [3] was “reduced”, the “pre-incubation time for maximal reduction of Piezo1 current amplitudes” value ([3]; 20 μM OB-1) was 3 h and the Hill coefficient ([3]; Piezo1 current) was 0.6. The IC50 ([3]; calculated from concentration dependence, read-out: IC50 on mechanically-activated (Piezo1) currents) was 10 nM, the “AHP (after-hyperpolarization potential)” value ([4]; Mechanoreceptors (n = 9)) was −62.3 ± 1.6 mV and the “APamp (action potential amplitude)” value ([4]; Mechanoreceptors (n = 9)) was 97.8 ± 4.9 mV. The “APtime (total duration of action potential)” value ([4]; Mechanoreceptors (n = 9)) was 11.90 ± 2.9 ms, the “Input R” value ([4]; Mechanoreceptors (n = 9)) was 40.8 ± 6.7 MΩ and the Threshold ([4]; Mechanoreceptors (n = 9)) was 700.0 ± 305.9 pA. For the same compound, the “Tpeak (Time to action potential peak)” value ([4]; Mechanoreceptors (n = 9)) was 7.5 ± 2.0 ms, the “Trep (Time to repolarizing peak)” value ([4]; Mechanoreceptors (n = 9)) was 4.5 ± 1.7 ms and the “Vrest (Resting potential)” value ([4]; Mechanoreceptors (n = 9)) was −56.6 ± 2.0 mV. For the same compound, the “AHP (after-hyperpolarization potential)” value ([4]; Nociceptors (n = 12)) was −67.4 ± 1.3 mV, the “APamp (action potential amplitude)” value ([4]; Nociceptors (n = 12)) was 115.4 ± 4.0 mV and the “APtime (total duration of action potential)” value ([4]; Nociceptors (n = 12)) was 10.0 ± 1.5 ms. The “Input R” value ([4]; Nociceptors (n = 12)) was 56.7 ± 5.2 MΩ, the Threshold ([4]; Nociceptors (n = 12)) was 1276.4 ± 256.0 pA and the “Tpeak (Time to action potential peak)” value ([4]; Nociceptors (n = 12)) was 5.0 ± 0.7 ms. For the same compound, the “Trep (Time to repolarizing peak)” value ([4]; Nociceptors (n = 12)) was 5.0 ± 1.1 ms, the “Vrest (Resting potential)” value ([4]; Nociceptors (n = 12)) was −59.5 ± 1.2 mV and the “parameters indicative of electrical excitability” value ([4]; treated at least 3 h with 20 μM) was “no alteration”.

For `Cc1ccnc(NC(=O)CSc2nnc3c4ccccc4n(Cc4ccccc4)c3n2)c1` [OB-2], the “sensitivity of mechanically gated currents in mechanoreceptors” value [1] was “substantially reduced”, the “pillar deflections at which mechanically-gated currents are significantly inhibited” value [1] was “less than 50 nm” and the “activation time constant for current activation τ1” value ([2]; nociceptors) was “significantly slowed”. For the same compound, the “latency for mechanically gated currents” value ([2]; nociceptors) was “significantly slowed”, the “amplitude of mechanically gated currents in nociceptors” value [2] was “significant reduction” and the “sensitivity of mechanosensitive currents to pillar deflection” value [3] was “reduced”.
